Results: patent US20250134853A1, “COMPOUNDS AND METHODS FOR USING GALLOYLATED POLYPHENOLS TO TREAT DISEASES MEDIATED BY THIOL ISOMERASES” (Beth Israel Deaconess Medical Center, Inc., priority 2023, published 2025)
Entries after “also recorded” stand apart in the source; their conditions may differ.

Assays:
PDI [1] = biological target: T1, PDI (Homo sapiens, UniProt P07237); assay: SDS-PAGE molecular weight shift (alkylation of PDI free thiols); assay type: biochemical
T1 construct: FLAG; made in house; host or cells: Escherichia coli Origami B (DE3)
Description: FIG. 5 is an image of gel showing detection of PDI free thiol by the labeling of acetamido maleimidylstilbene disulfonic acid (AMS), which shifts the protein to a higher apparent molecular weight.
4-acetomido-4′-maleimidylstilbene-2,2′ disulfonic acid (AMS), which shifts the mass of the protein by 500 Da for every cysteine alkylated, was used as a positive control. […] N-ethylmaleimide (NEM) was used for a control experiment because covalent alkylation of the free thiols will expectedly prevent PDI activity (FIG. 6A).

PDI [2] = biological target: T1, PDI; assay: Maleimide-pegylated biotin (MPB) binding to PDI; details: preincubation with compound
Procedure: PDI was then exposed to MPB in Laemmli Sample buffer for 10 minutes. Samples were subsequently analyzed for MPB labeling with […] after SDS-PAGE and immunoblotting.
Maleimide-pegylated Biotin (MPB) binding. MPB-binding experiments were performed in a reaction volume of 37.5 μL of polyphenols with 5 μM of thiol isomerase in phosphate buffered saline (PBS). The reaction mixture was incubated at 37° C. for 1 h. Subsequently, the reaction mixtures were incubated with 25 μM of MPB. The labelling was performed for 20 min at 25° C. A total of 12.5 μL of 4× Laemmli Sample Buffer with 10% v/v β-mercaptoethanol was added to each of the samples, followed by heating at 95° C. for 10 min. From each sample, 10 μL was loaded on a 4-15% SDS-PAGE TGX gel, followed by transfer on a nitrocellulose membrane. After blocking the membrane with tris-buffered saline containing 0.1% v/v Tween-20 (TBS-T) containing 5% BSA for 1 h, the membrane was incubated with a 1:2,000 dilution of streptavidin-HRP in TBS-T for an hour in the dark. Detection of the immunoblots was performed using a BioRad ChemiDoc MP imager.

PDI [3] = biological target: T1, PDI; assay: Di-eosin-GSSG disulfide reductase assay, PDI; assay type: biochemical
Procedure: (§2) Di-eosin-GSSG disulfide reductase assay. The probe di-eosin glutathione disulfide, di-eosin-GSSG, was prepared by incubating 100 μM of GSSG with 1 mM of eosin isothiocyanate in 100 mM potassium phosphate containing 2 mM EDTA (pH 7.4), at 25° C. overnight in the dark. The mixture was passed down a PD-10 column and different fractions were collected. A fold change of fluorescence (Ex: 520 nm, Em: 550 nm) was calculated using samples subjected to either vehicle or 20 mM of DTT. Any fraction with a fold change >5 was kept. Using a stock of 10 mM eosin isothiocyanate, a standard curve was generated and concentration of samples were determined accordingly. Di-eosin-GSSG cleavage of purified thiol isomerases and PDI domains was monitored in a 96-well fluorescence plate format. PDI, CGXC-PDI variants, ERp5, ERp57, ERp46 and PDI domains were assayed at 50 nM in the presence or absence of the indicated small molecules. The assay included a thiol isomerase assay buffer (39 mM KH2PO4, 61 mM K2HPO4, 2 mM EDTA, 5 M DTT, pH 7.4) and 150 nM of the di-eosin-GSSG probe. The increase in fluorescence was determined for 60 min by excitation at 520 nm and emission at 550 nm in a Synergy Biotek 4. The reduction of 150 nM di-eosin-GSSG by 5 μM DTT in the presence or absence of mentioned small molecule or proteins served as a negative control.

ERp57 = biological target: T2, ERp57 (Homo sapiens, UniProt P30101); assay: Di-eosin-GSSG disulfide reductase assay, ERp57; assay type: biochemical
T2 construct: FLAG; made in house; host or cells: Escherichia coli Origami B (DE3)
T2 sequence (P30101 25-505): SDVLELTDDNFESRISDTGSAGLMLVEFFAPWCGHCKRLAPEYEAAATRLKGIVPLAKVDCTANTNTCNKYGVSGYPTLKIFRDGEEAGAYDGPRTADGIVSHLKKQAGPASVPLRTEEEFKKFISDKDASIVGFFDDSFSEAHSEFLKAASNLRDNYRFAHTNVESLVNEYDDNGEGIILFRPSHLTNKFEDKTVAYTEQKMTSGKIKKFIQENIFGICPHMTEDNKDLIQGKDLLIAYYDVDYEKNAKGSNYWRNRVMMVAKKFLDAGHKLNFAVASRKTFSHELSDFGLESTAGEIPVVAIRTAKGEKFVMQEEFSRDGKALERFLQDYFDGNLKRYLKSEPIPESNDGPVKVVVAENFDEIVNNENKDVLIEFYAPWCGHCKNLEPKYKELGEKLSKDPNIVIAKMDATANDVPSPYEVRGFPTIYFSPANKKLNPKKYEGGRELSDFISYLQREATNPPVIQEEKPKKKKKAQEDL
Description: Recombinant protein purification. Recombinant ‘double-tagged’ (streptavidin-binding protein-tagged and FLAG-tagged) full-length PDI, ERp57, recombinant His-tagged full-length ERp5, ERp72, PDI domain fragments, and PDI mutant were cloned into a pET-15b vector at the NdeI and BamHI sites and transformed into Escherichia coli Origami B (DE3) cells (EMD Chemicals). The recombinant proteins were expressed and isolated by affinity chromatography with complete His-Tag purification resin (Roche Applied Science) or Pierce High-Capacity Streptavidin Agarose beads and purified on a Superdex 200 (GE Healthcare).
(§1) Di-eosin-GSSG disulfide reductase assay. […] Any fraction with a fold change >5 was kept.

PDI [4] = biological target: T1, PDI; assay: Jump dilution reversibility, di-eosin-GSSG assay; assay type: biochemical; details: 50 μM, 30 min, then 100-fold dilution
Procedure: FIGS. 6A and 6B are plots showing % PDI activity. […] To test reversibility, the samples containing 50 μM compounds were then diluted 1:100. PDI activity was evaluated using a di-eosin-GSSG reductase assay. Data represented as mean SEM.
After 30 minutes of equilibration, the PDI-inhibitor mixture was diluted 100-fold with thiol isomerase assay buffer where the final concentration of enzyme is 0.2 μM and compounds at 500 nM or 50 μM. Di-eosin-GSSG was added to a final concentration of 300 nM and the assay was immediately recorded for 1 h.

ERp46 = ERp46 (Homo sapiens, UniProt Q8NBS9); assay: Di-eosin-GSSG disulfide reductase assay, ERp46; assay type: biochemical
Description: as §1

SARS-CoV-2 = details: cited from earlier work
[5] = tested on: PDI domain fragments (a, a′, ab, abb′, b′xa′); assay: Di-eosin-GSSG assay on isolated PDI domain fragments; assay type: biochemical; details: a, ab, b′xa′, abb′ fragments; PGHG at 10 μM
Procedure: as §2

[6] = tested on: bleeding following tail clip; assay: Tail clip assay of hemostasis; details: 25 μg/g PGHG, intraperitoneal injection
SARS-CoV-2 M^pro = SARS-CoV-2 M^pro (Severe acute respiratory syndrome coronavirus 2, UniProt P0DTD1); details: literature values (Table 2); read-out: SARS-CoV-2 M^pro inhibition; cited from earlier work

T1 sequence (P07237 18-508): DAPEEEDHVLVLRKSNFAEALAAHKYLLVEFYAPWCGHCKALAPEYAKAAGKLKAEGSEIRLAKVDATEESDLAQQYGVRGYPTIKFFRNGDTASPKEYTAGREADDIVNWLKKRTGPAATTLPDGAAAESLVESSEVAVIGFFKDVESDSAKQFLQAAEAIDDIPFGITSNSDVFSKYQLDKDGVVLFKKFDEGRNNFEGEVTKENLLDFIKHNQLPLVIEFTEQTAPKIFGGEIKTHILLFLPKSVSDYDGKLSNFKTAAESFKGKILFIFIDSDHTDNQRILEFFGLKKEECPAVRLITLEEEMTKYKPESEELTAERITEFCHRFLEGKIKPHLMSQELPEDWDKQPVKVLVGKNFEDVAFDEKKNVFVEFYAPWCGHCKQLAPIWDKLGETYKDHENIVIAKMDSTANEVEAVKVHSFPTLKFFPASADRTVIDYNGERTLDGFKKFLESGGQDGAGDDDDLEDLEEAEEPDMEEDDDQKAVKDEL
Sequence of ERp46 (Q8NBS9 33-432, species assumed): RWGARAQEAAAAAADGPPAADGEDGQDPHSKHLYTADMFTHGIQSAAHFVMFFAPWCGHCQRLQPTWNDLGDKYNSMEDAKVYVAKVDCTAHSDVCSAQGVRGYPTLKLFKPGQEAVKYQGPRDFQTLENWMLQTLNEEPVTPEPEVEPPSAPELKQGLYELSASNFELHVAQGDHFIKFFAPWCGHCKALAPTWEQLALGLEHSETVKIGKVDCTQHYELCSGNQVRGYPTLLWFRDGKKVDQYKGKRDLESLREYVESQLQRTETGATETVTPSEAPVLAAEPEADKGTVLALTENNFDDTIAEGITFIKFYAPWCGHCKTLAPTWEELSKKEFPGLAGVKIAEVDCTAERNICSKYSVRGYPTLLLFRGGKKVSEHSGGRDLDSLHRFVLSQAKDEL

With `O=C(O[C@@H]1[C@@H](O)[C@H](Oc2cc(O)c3c(c2)O[C@H](c2ccccc2)CC3=O)O[C@@H]2COC(=O)c3cc(O)c(O)c(O)c3-c3c(cc(O)c(O)c3O)C(=O)O[C@@H]12)c1cc(O)c(O)c(O)c1` [PGHG, pinocembrin 7-O-(3″-galloyl-4″,6″-(S)-hexahydroxydiphenoyl)-beta-D-glucose] the “shift in molecular weight of PDI in SDS polyacrylamide gel” value (PDI [1]) was “did not induce a shift in molecular weight”, the “effect on MPB binding to PDI” value (PDI [2]) was “no significant effect on MPB binding” and the “inhibition of PDI (in words)” value (PDI [3]) was “low micromolar range; also recorded: inhibit PDI”. The IC50 (PDI [3]; read-out: PDI reductase activity IC50) was 1.5 ± 0.6 µM, the IC50 (ERp57) was 3.3 µM and the “reversibility of PDI inhibition” value (PDI [4]) was “inhibitory activity was lost following a 100-fold dilution”. For the same compound, the IC50 (ERp46) was 3.9 µM, the IC50 (SARS-CoV-2; Vero Cells, read-out: Inhibition of viral replication IC50) was 5 µM and the “inhibition of SARS-CoV-2 / infection (in words)” value (SARS-CoV-2) was “inhibitors of SARS-CoV-2”. For the same compound, the “inhibition of isolated PDI fragments” value [5] was “inhibited a and a′ fragments as well as ab, b′xa′ and abb′x fragments; also recorded: inhibited activity of all fragments including the isolated the a and a′ domains”, the “time to cessation of bleeding” value [6] was “did not prolong the time to cessation of bleeding; also recorded: did not prolong the time required for bleeding to subside” and the total blood loss [6] was “nor the total amount of blood loss; also recorded: nor did it significantly affect total blood loss”. For the same compound, the IC50 (SARS-CoV-2 M^pro) was 6.5 µM.
